From paper PMC9299836 (eLife, 2022)

Molecular target: mGluR2 (Mus musculus, UniProt Q14BI2, A548F)
Assay: Single-molecule FRET (SiMPull) of azi-CRD: population histograms and state occupancy;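 also: Cy3/Cy5-labelled receptor from HEK293T cell lysate captured on anti-FLAG surfaces, apparent FRET efficiency computed from donor and acceptor intensities with crosstalk correction, pooled into population histograms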
Conditions: for smFRET Histogram, Mean: N 3
[1] = azi-CRD, 5 μM modulator, 0 μM glutamate, fraction of total area
[2] = azi-CRD, 5 μM modulator, 15 μM glutamate, fraction of total area

Sequence of mGluR2 (Q14BI2 19-872 A548F): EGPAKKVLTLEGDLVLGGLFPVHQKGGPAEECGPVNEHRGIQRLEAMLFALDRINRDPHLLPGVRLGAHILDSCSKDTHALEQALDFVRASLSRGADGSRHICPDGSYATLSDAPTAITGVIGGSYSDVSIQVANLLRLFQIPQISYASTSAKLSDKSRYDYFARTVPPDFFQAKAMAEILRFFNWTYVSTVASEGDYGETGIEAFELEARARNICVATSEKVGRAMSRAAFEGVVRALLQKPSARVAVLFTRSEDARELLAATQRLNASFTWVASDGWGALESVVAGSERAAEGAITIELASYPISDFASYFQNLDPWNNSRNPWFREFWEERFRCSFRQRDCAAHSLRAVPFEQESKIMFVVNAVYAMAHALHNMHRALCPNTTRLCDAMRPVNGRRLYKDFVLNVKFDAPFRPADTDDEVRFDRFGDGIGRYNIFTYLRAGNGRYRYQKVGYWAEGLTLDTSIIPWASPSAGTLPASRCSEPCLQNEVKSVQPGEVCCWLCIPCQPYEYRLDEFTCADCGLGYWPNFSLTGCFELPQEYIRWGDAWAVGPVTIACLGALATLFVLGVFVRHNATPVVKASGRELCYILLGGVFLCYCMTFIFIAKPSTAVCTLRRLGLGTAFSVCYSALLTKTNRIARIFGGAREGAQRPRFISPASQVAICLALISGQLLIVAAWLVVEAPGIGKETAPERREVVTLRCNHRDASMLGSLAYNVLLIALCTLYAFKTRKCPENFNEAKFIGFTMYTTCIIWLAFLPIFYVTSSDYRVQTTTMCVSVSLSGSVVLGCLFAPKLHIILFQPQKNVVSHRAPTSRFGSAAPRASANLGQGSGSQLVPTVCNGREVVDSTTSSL

MNI-137
smFRET Histogram, Mean (FRET 0, 0μM Glutamate + GPT/Pyruvate + 5μM MNI-137): 5.11E-04
smFRET Histogram, Mean (FRET 0.02, 0μM Glutamate + GPT/Pyruvate + 5μM MNI-137): 6.64E-04
smFRET Histogram, Mean (FRET 0.04, 0μM Glutamate + GPT/Pyruvate + 5μM MNI-137): 0.00218
smFRET Histogram, Mean (FRET 0.06, 0μM Glutamate + GPT/Pyruvate + 5μM MNI-137): 0.00418
smFRET Histogram, Mean (FRET 0.08, 0μM Glutamate + GPT/Pyruvate + 5μM MNI-137): 0.00801
smFRET Histogram, Mean (FRET 0.1, 0μM Glutamate + GPT/Pyruvate + 5μM MNI-137): 0.01404
smFRET Histogram, Mean (FRET 0.1, 15μM Glutamate + 5μM MNI-137): 0.0021
smFRET Histogram, Mean (FRET 0.12, 0μM Glutamate + GPT/Pyruvate + 5μM MNI-137): 0.02347
smFRET Histogram, Mean (FRET 0.12, 15μM Glutamate + 5μM MNI-137): 0.00321
smFRET Histogram, Mean (FRET 0.14, 0μM Glutamate + GPT/Pyruvate + 5μM MNI-137): 0.03681
smFRET Histogram, Mean (FRET 0.14, 15μM Glutamate + 5μM MNI-137): 0.00506
smFRET Histogram, Mean (FRET 0.16, 0μM Glutamate + GPT/Pyruvate + 5μM MNI-137): 0.05131
smFRET Histogram, Mean (FRET 0.16, 15μM Glutamate + 5μM MNI-137): 0.00784
smFRET Histogram, Mean (FRET 0.18, 0μM Glutamate + GPT/Pyruvate + 5μM MNI-137): 0.06643
smFRET Histogram, Mean (FRET 0.18, 15μM Glutamate + 5μM MNI-137): 0.01263
smFRET Histogram, Mean (FRET 0.2, 0μM Glutamate + GPT/Pyruvate + 5μM MNI-137): 0.07988
smFRET Histogram, Mean (FRET 0.2, 15μM Glutamate + 5μM MNI-137): 0.01781
smFRET Histogram, Mean (FRET 0.22, 0μM Glutamate + GPT/Pyruvate + 5μM MNI-137): 0.08842
smFRET Histogram, Mean (FRET 0.22, 15μM Glutamate + 5μM MNI-137): 0.02498
smFRET Histogram, Mean (FRET 0.24, 0μM Glutamate + GPT/Pyruvate + 5μM MNI-137): 0.08863
smFRET Histogram, Mean (FRET 0.24, 15μM Glutamate + 5μM MNI-137): 0.03347
smFRET Histogram, Mean (FRET 0.26, 0μM Glutamate + GPT/Pyruvate + 5μM MNI-137): 0.08743
smFRET Histogram, Mean (FRET 0.26, 15μM Glutamate + 5μM MNI-137): 0.04243
smFRET Histogram, Mean (FRET 0.28, 0μM Glutamate + GPT/Pyruvate + 5μM MNI-137): 0.07891
smFRET Histogram, Mean (FRET 0.28, 15μM Glutamate + 5μM MNI-137): 0.05374
smFRET Histogram, Mean (FRET 0.3, 0μM Glutamate + GPT/Pyruvate + 5μM MNI-137): 0.06941
smFRET Histogram, Mean (FRET 0.3, 15μM Glutamate + 5μM MNI-137): 0.06299
smFRET Histogram, Mean (FRET 0.32, 0μM Glutamate + GPT/Pyruvate + 5μM MNI-137): 0.05758
smFRET Histogram, Mean (FRET 0.32, 15μM Glutamate + 5μM MNI-137): 0.07069
smFRET Histogram, Mean (FRET 0.34, 0μM Glutamate + GPT/Pyruvate + 5μM MNI-137): 0.04784
smFRET Histogram, Mean (FRET 0.34, 15μM Glutamate + 5μM MNI-137): 0.0754
smFRET Histogram, Mean (FRET 0.36, 0μM Glutamate + GPT/Pyruvate + 5μM MNI-137): 0.03831
smFRET Histogram, Mean (FRET 0.36, 15μM Glutamate + 5μM MNI-137): 0.07714
smFRET Histogram, Mean (FRET 0.38, 0μM Glutamate + GPT/Pyruvate + 5μM MNI-137): 0.03079
smFRET Histogram, Mean (FRET 0.38, 15μM Glutamate + 5μM MNI-137): 0.07309
smFRET Histogram, Mean (FRET 0.4, 0μM Glutamate + GPT/Pyruvate + 5μM MNI-137): 0.02474
smFRET Histogram, Mean (FRET 0.4, 15μM Glutamate + 5μM MNI-137): 0.06696
smFRET Histogram, Mean (FRET 0.42, 15μM Glutamate + 5μM MNI-137): 0.05663
smFRET Histogram, Mean (FRET 0.44, 0μM Glutamate + GPT/Pyruvate + 5μM MNI-137): 0.01517
smFRET Histogram, Mean (FRET 0.44, 15μM Glutamate + 5μM MNI-137): 0.0478
smFRET Histogram, Mean (FRET 0.46, 0μM Glutamate + GPT/Pyruvate + 5μM MNI-137): 0.01122
smFRET Histogram, Mean (FRET 0.46, 15μM Glutamate + 5μM MNI-137): 0.03818
smFRET Histogram, Mean (FRET 0.48, 0μM Glutamate + GPT/Pyruvate + 5μM MNI-137): 0.00878
smFRET Histogram, Mean (FRET 0.48, 15μM Glutamate + 5μM MNI-137): 0.02974
smFRET Histogram, Mean (FRET 0.5, 0μM Glutamate + GPT/Pyruvate + 5μM MNI-137): 0.0069
smFRET Histogram, Mean (FRET 0.5, 15μM Glutamate + 5μM MNI-137): 0.02283
smFRET Histogram, Mean (FRET 0.52, 0μM Glutamate + GPT/Pyruvate + 5μM MNI-137): 0.00522
smFRET Histogram, Mean (FRET 0.52, 15μM Glutamate + 5μM MNI-137): 0.01756
smFRET Histogram, Mean (FRET 0.54, 0μM Glutamate + GPT/Pyruvate + 5μM MNI-137): 0.0038
smFRET Histogram, Mean (FRET 0.54, 15μM Glutamate + 5μM MNI-137): 0.01395
smFRET Histogram, Mean (FRET 0.56, 0μM Glutamate + GPT/Pyruvate + 5μM MNI-137): 0.00307
smFRET Histogram, Mean (FRET 0.56, 15μM Glutamate + 5μM MNI-137): 0.01177
smFRET Histogram, Mean (FRET 0.58, 0μM Glutamate + GPT/Pyruvate + 5μM MNI-137): 0.00238
smFRET Histogram, Mean (FRET 0.58, 15μM Glutamate + 5μM MNI-137): 0.0101
smFRET Histogram, Mean (FRET 0.6, 0μM Glutamate + GPT/Pyruvate + 5μM MNI-137): 0.00226
smFRET Histogram, Mean (FRET 0.6, 15μM Glutamate + 5μM MNI-137): 0.0089
smFRET Histogram, Mean (FRET 0.62, 15μM Glutamate + 5μM MNI-137): 0.0083
smFRET Histogram, Mean (FRET 0.64, 0μM Glutamate + GPT/Pyruvate + 5μM MNI-137): 0.00164
smFRET Histogram, Mean (FRET 0.64, 15μM Glutamate + 5μM MNI-137): 0.00824
smFRET Histogram, Mean (FRET 0.66, 0μM Glutamate + GPT/Pyruvate + 5μM MNI-137): 0.00119
smFRET Histogram, Mean (FRET 0.66, 15μM Glutamate + 5μM MNI-137): 0.00778
smFRET Histogram, Mean (FRET 0.68, 0μM Glutamate + GPT/Pyruvate + 5μM MNI-137): 0.00129
smFRET Histogram, Mean (FRET 0.68, 15μM Glutamate + 5μM MNI-137): 0.00775
smFRET Histogram, Mean (FRET 0.7, 0μM Glutamate + GPT/Pyruvate + 5μM MNI-137): 0.00106
smFRET Histogram, Mean (FRET 0.7, 15μM Glutamate + 5μM MNI-137): 0.00734
smFRET Histogram, Mean (FRET 0.72, 0μM Glutamate + GPT/Pyruvate + 5μM MNI-137): 9.06E-04
smFRET Histogram, Mean (FRET 0.72, 15μM Glutamate + 5μM MNI-137): 0.00691
smFRET Histogram, Mean (FRET 0.74, 0μM Glutamate + GPT/Pyruvate + 5μM MNI-137): 8.03E-04
smFRET Histogram, Mean (FRET 0.74, 15μM Glutamate + 5μM MNI-137): 0.00635
smFRET Histogram, Mean (FRET 0.76, 0μM Glutamate + GPT/Pyruvate + 5μM MNI-137): 9.58E-04
smFRET Histogram, Mean (FRET 0.76, 15μM Glutamate + 5μM MNI-137): 0.00599
smFRET Histogram, Mean (FRET 0.78, 0μM Glutamate + GPT/Pyruvate + 5μM MNI-137): 9.38E-04
smFRET Histogram, Mean (FRET 0.78, 15μM Glutamate + 5μM MNI-137): 0.00583
smFRET Histogram, Mean (FRET 0.8, 0μM Glutamate + GPT/Pyruvate + 5μM MNI-137): 8.49E-04
smFRET Histogram, Mean (FRET 0.8, 15μM Glutamate + 5μM MNI-137): 0.00559
smFRET Histogram, Mean (FRET 0.82, 0μM Glutamate + GPT/Pyruvate + 5μM MNI-137): 9.70E-04
smFRET Histogram, Mean (FRET 0.82, 15μM Glutamate + 5μM MNI-137): 0.00496
smFRET Histogram, Mean (FRET 0.84, 0μM Glutamate + GPT/Pyruvate + 5μM MNI-137): 0.00112
smFRET Histogram, Mean (FRET 0.84, 15μM Glutamate + 5μM MNI-137): 0.00504
smFRET Histogram, Mean (FRET 0.86, 0μM Glutamate + GPT/Pyruvate + 5μM MNI-137): 0.00114
smFRET Histogram, Mean (FRET 0.86, 15μM Glutamate + 5μM MNI-137): 0.00467
smFRET Histogram, Mean (FRET 0.88, 0μM Glutamate + GPT/Pyruvate + 5μM MNI-137): 0.0011
smFRET Histogram, Mean (FRET 0.9, 0μM Glutamate + GPT/Pyruvate + 5μM MNI-137): 0.0013
smFRET Histogram, Mean (FRET 0.9, 15μM Glutamate + 5μM MNI-137): 0.00455
smFRET Histogram, Mean (FRET 0.92, 0μM Glutamate + GPT/Pyruvate + 5μM MNI-137): 0.0011
smFRET Histogram, Mean (FRET 0.92, 15μM Glutamate + 5μM MNI-137): 0.00382
smFRET Histogram, Mean (FRET 0.94, 0μM Glutamate + GPT/Pyruvate + 5μM MNI-137): 8.72E-04
smFRET Histogram, Mean (FRET 0.96, 0μM Glutamate + GPT/Pyruvate + 5μM MNI-137): 0.001
smFRET Histogram, Mean (FRET 0.98, 0μM Glutamate + GPT/Pyruvate + 5μM MNI-137): 6.96E-04
smFRET Histogram, Mean (FRET 1, 0μM Glutamate + GPT/Pyruvate + 5μM MNI-137): 4.51E-04
smFRET Histogram, Mean (FRET 1.02, 0μM Glutamate + GPT/Pyruvate + 5μM MNI-137): 2.62E-04
smFRET Histogram, Mean (FRET 1.04, 0μM Glutamate + GPT/Pyruvate + 5μM MNI-137): 1.50E-04
smFRET Histogram, Mean (FRET 1.06, 0μM Glutamate + GPT/Pyruvate + 5μM MNI-137): 2.86E-05
smFRET Histogram, Mean (FRET 1.08, 0μM Glutamate + GPT/Pyruvate + 5μM MNI-137): 2.33E-05
smFRET Histogram, Mean (FRET 1.1, 0μM Glutamate + GPT/Pyruvate + 5μM MNI-137): 8.10E-05
smFRET Histogram, Mean (FRET 1.12, 0μM Glutamate + GPT/Pyruvate + 5μM MNI-137): 1.94E-05
smFRET Histogram, Mean (FRET 1.14, 0μM Glutamate + GPT/Pyruvate + 5μM MNI-137): 1.94E-05
smFRET Histogram, Mean (FRET 1.16, 0μM Glutamate + GPT/Pyruvate + 5μM MNI-137): 9.97E-06
smFRET Histogram, Mean (FRET 1.18, 0μM Glutamate + GPT/Pyruvate + 5μM MNI-137): 0
smFRET Histogram, Mean (FRET 1.2, 0μM Glutamate + GPT/Pyruvate + 5μM MNI-137): 0
Mean occupancy, state 1 (inactive, FRET 0.24) [1]: 0.7486
Mean occupancy, state 2 (intermediate 1, FRET 0.38) [1]: 0.222
Mean occupancy, state 3 (intermediate 2, FRET 0.70) [1]: 0.02038
Mean occupancy, state 4 (active, FRET 0.87) [1]: 0.00903
Mean occupancy, state 1 (inactive, FRET 0.24) [2]: 0.1039
Mean occupancy, state 2 (intermediate 1, FRET 0.38) [2]: 0.7494
Mean occupancy, state 3 (intermediate 2, FRET 0.70) [2]: 0.1272
